Measured values: US20230128114A1, “METHODS AND COMPOSITIONS FOR TREATING OR PREVENTING AN INFLAMMATORY CONDITION” (priority 2020, published 2023)

Assays:
LPS-induced sepsis = LPS-induced sepsis in mice, intraperitoneal administration: serum immune marker panel (Luminex/ELISA); type: in vivo, C57BL/6 mice
Experimental: (§1) Male C57BL/6 mice weighing 10-20 g were used. Vehicle and active agents (i.e., CBD and hydroxychloroquine) alone or in combination were administered intraperitoneally (IP) (Table 4) or orally (Table 5) at 1 hour before LPS (100 μg/100 μL/mouse) injected intravenously (IV). At 2 hours after LPS injection, blood was collected from all mice by cardiac puncture, sera processed and assayed for biomarkers using either the Th17-plex for IL-1β, IL-2, IL-10, IL-12 (p70), IFN-γ and TNF-α by Luminex, plus IL-6 and D-dimer by ELISA, or the 23-plex for IL-1α, IL-1β, IL-2, IL-3, IL-4, IL-5, IL-6, IL-9, IL-10, IL-12(p40), IL-12(p70), IL-13, IL-17A, Eotaxin, G-CSF, GM-CSF, IFN-γ, KC, MCP-1(MCAF), MIP-1α, MIP-1β, RANTES, and TNF-α by Luminex, plus IL-6 by ELISA. ANOVA followed by Dunnett's test was applied for comparison between vehicle and treatment groups. p<0.05 is considered significant.

[1] = system: LPS-induced production of inflammatory cytokines; test: LPS-induced sepsis in mice: synergy analysis (relative inhibition of cytokine release, Excess over Bliss); type: in vivo, C57BL/6 mice; settings: for IFN-γ, relative inhibition of cytokine release / IL-1β, relative inhibition of cytokine release / IL-6, relative inhibition of cytokine release / IL-12(p70), relative inhibition of cytokine release / TNF-α, relative inhibition of cytokine release: HCQ 100 mg/kg, alone or combined, observed
Experimental: as §1
(§2) For synergy analysis, data were baseline subtracted using the cytokine levels of sham treated mice (i.e., no LPS injection), before normalising the values for each cytokine relative to maximum values across the groups. The normalised values were used to calculate the relative inhibition where a value of 1 represents complete inhibition and a value of 0 represents no inhibition. Synergy was calculated using the statistical methods described elsewhere herein.
(§3) Drug synergy was determined using the Bliss Independence method where the predicted effect of the drug combination is calculated using the equation: […]

[2] = system: LPS-induced pulmonary inflammation; test: LPS-induced pulmonary inflammation: BALF cytokines, synergy analysis; type: in vivo, C57BL/B6 mice; settings: HCQ 25 mg/kg, alone or combined, observed; for IL-1β, relative inhibition of cytokine release (BALF) / MCP-1, relative inhibition of cytokine release (BALF) / TNF-α, relative inhibition of cytokine release (BALF): CBD 1 mg/kg; for CXCL-1, relative inhibition of cytokine release (BALF): CBD 10 mg/kg
Experimental: Male C57BL/B6 mice weighing 10-20 g were used. Vehicle and active agents (i.e., CBD and hydroxychloroquine) alone or in combination were administered intraperitoneally (IP) at 1 hour before LPS (˜80 mg/kg) was administered intratracheally. 24 hours after LPS injection, mice were anaesthetized with pentoparbital and 0.5 mL of PBS was administered twice through a tracheal cannula after which approximately 0.6 mL of broncheoalveolar lavage fluid (BALF) was obtained. The BALF was assayed for IL-1β, TNF-α, MCP-1(MCAF) and CXCL-1 by Luminex. ANOVA followed by Dunnett's test was applied for comparison between vehicle and treatment groups. p<0.05 was considered significant.
as §2, §3

TNBS-induced colitis = test: TNBS-induced colitis; type: in vivo, BALB/c mice; settings: for Relative reduction in Colon to body weight ratio / Relative reduction in Total Colitis Index / Macroscopic damage score, relative reduction / Stool consistency score, relative reduction / MPO, relative reduction: HCQ 2.5 mg/kg, alone or combined; for Relative reduction in Total Colitis Index: histology of distal colon; for Macroscopic damage score, relative reduction / Stool consistency score, relative reduction / MPO, relative reduction: observed; for MPO, relative reduction: colon tissue
Description: Male BALB/c were used as an in vivo model of colitis, induced by intracolonic administration of 2,4,6-trinitrobenzene sulfonic acid (TNBS) in 50% ethanol, as previously described by Antoniou et al. (2016, Annals of Medicine and Surgery, 11: 9-15). Briefly, the ethanol disrupts the intestinal barrier, permitting TNBS to interact with colon proteins. Interaction of TNBS with high-molecular weight proteins renders them immunogenic, leading to Th1 mediated inflammation, which is causative of symptoms include inconsistent stool formation and blood in the faeces.
Vehicle and active agents (i.e., CBD and hydroxychloroquine) alone or in combination were administered intraperitoneally (IP) once a day starting from Day 1 (i.e., 24 hours before TNBS) to Day 4, for a total of 4 consecutive days (Days 1-4). On the Day of TNBS challenge (i.e., Day 2), test articles and vehicle were given 2 hrs before TNBS.
Colon tissues were harvested in all animals at termination. Colon samples were taken at 0.5, 2, and 3.5 cm from the anus, fixed in formalin, and then embedded in paraffin blocks. Four-micrometer tissue sections were cut and stained with H&E for histological analysis in accordance with the method of Dieleman et al. (1998, Clinical Experimental Immunology, 114: 385-391). Histological criteria included: abnormalities of mucosal architecture, extent of inflammation, erosion or ulceration, epithelial regeneration, and the percentage involvement by the disease process. The scoring was based on the findings of the observers by examining three sections from each colon per animal. Total score for colitis (Total Colitis Index) were added, resulting in a combined histological score range from 0 to 60.
Other endpoint measures of stool consistency score (i.e., 0—normal stools, 1, soft but still formed stools, 2—very soft stools, 3—diarrhoea), faecal occult blood score (i.e., 0-negative hemoccult, 1—positive hemoccult, 2—blood traces in stool visible, 3—rectal bleeding), colon weight, colon macroscopic damage score (a composite of adhesions, strictures, ulcers/inflammations and wall thickness) and myeloperoxidase levels in the colon tissue were also assessed. The data from each of these endpoints was baseline subtracted using the equivalent measures from sham treated mice (i.e., no TNBS) and reduction in any measure calculated as a relative reduction. Synergy was calculated using the statistical methods described elsewhere herein.

[3] = hydroxychloroquine 1, 5, 10, 25, 50 and 100 mg/kg IP
[4] = hydroxychloroquine 50 and 100 mg/kg IP
[5] = CBD 1, 5, 10, 25, 50 and 100 mg/kg IP
[6] = CBD 10 mg/kg alone, 1 = complete inhibition

CCN(CCO)CCCC(C)Nc1ccnc2cc(Cl)ccc12 (stereo not drawn) [HCQ]
D-dimer level vs vehicle group (LPS-induced sepsis; [3]): dose-dependent increase | IL-10 level vs vehicle group (LPS-induced sepsis; [3]): significant (p<0.05) increase | IFN-γ level vs vehicle group (LPS-induced sepsis; [4]): moderate decrease | IL-1β level vs vehicle group (LPS-induced sepsis; [4]): significant (p<0.05) decreases | IL-2 level vs vehicle group (LPS-induced sepsis; [4]): significant (p<0.05) decreases | IL-12(p70) level vs vehicle group (LPS-induced sepsis; [4]): moderate decrease | TNF-α level vs vehicle group (LPS-induced sepsis; [4]): moderate decrease | IFN-γ, relative inhibition of cytokine release ([1]; CBD 10 mg/kg): 0.74 | IL-1β, relative inhibition of cytokine release ([1]; CBD 10 mg/kg): 0.01 | IL-6, relative inhibition of cytokine release ([1]; CBD 10 mg/kg): 0.22 | IL-12(p70), relative inhibition of cytokine release ([1]; CBD 10 mg/kg): 0.72 | TNF-α, relative inhibition of cytokine release ([1]; CBD 10 mg/kg): 0.55 | IL-6, relative inhibition of cytokine release ([1]; CBD 25 mg/kg): 0.22 | Relative inhibition of IFN-γ release in vivo ([1]; HCQ 25 mg/kg alone): 0.57 | Relative inhibition of IL-12(p70) release in vivo ([1]; HCQ 25 mg/kg alone): 0.56 | Relative inhibition of TNF-α release in vivo ([1]; HCQ 25 mg/kg alone): 0.33 | Relative inhibition of IL-6 release in vivo ([1]; HCQ 25 mg/kg alone (Table 21)): 0.17 | Relative inhibition of IL-6 release in vivo ([1]; HCQ 25 mg/kg alone (Table 23)): 0.17 | IL-1β, relative inhibition of cytokine release (BALF) [2]: 0.20 | MCP-1, relative inhibition of cytokine release (BALF) [2]: 0.09 | TNF-α, relative inhibition of cytokine release (BALF) [2]: 0.14 | CXCL-1, relative inhibition of cytokine release (BALF) [2]: 0.35 | Relative reduction in Colon to body weight ratio (TNBS-induced colitis; CBD 1 mg/kg): 0.287 | Relative reduction in Total Colitis Index (TNBS-induced colitis; CBD 1 mg/kg): 0.27 | Macroscopic damage score, relative reduction (TNBS-induced colitis; CBD 1 mg/kg): 0.05 | Stool consistency score, relative reduction (TNBS-induced colitis; CBD 1 mg/kg): 0.00 | MPO, relative reduction (TNBS-induced colitis; CBD 1 mg/kg): 0.00 | Colon tissue histology (H&E, 100×), FIG. 3 (TNBS-induced colitis; hydroxychloroquine 2.5 mg/kg): mild abnormality, cyctic dilation and aberrant crypts

C=C(C)[C@@H]1CCC(C)=C[C@H]1c1c(O)cc(CCCCC)cc1O [CBD, cannabidiol]
IFN-γ level vs vehicle group (LPS-induced sepsis; CBD 5 mg/kg IP): Moderate reductions | IFN-γ level vs vehicle group (LPS-induced sepsis; CBD 10 mg/kg IP): moderate reduction | IL-1β level vs vehicle group (LPS-induced sepsis; CBD 10 mg/kg IP): moderate reduction | IL-2 level vs vehicle group (LPS-induced sepsis; CBD 10 mg/kg IP): moderate reduction | IL-12(p70) level vs vehicle group (LPS-induced sepsis; CBD 10 mg/kg IP): moderate reduction | TNF-α level vs vehicle group (LPS-induced sepsis; CBD 10 mg/kg IP): moderate reduction | IFN-γ level vs vehicle group (LPS-induced sepsis; CBD 25 mg/kg IP): Moderate reductions | TNF-α level vs vehicle group (LPS-induced sepsis; CBD 25 mg/kg IP): Moderate reductions | IL-1β level vs vehicle group (LPS-induced sepsis; CBD 100 mg/kg IP): significant (p<0.05) increase | IL-10 level vs vehicle group (LPS-induced sepsis; CBD 100 mg/kg IP): significant (p<0.05) increase | LPS-induced D-dimer level vs vehicle control (LPS-induced sepsis; [5]): dose-dependent increase | LPS-induced IL-1β level vs vehicle control (LPS-induced sepsis; [5]): dose-dependent increase | LPS-induced IL-10 level vs vehicle control (LPS-induced sepsis; [5]): dose-dependent increase | Shape of dose response in the reduction of LPS-induced cytokine levels (LPS-induced sepsis; CBD 1-100 mg/kg IP): bell-shaped dose response curve | Relative inhibition of IFN-γ release in vivo [1, 6]: 0.00 | Relative inhibition of IL-6 release in vivo [1, 6]: 0.14 | Relative inhibition of IL-12(p70) release in vivo [1, 6]: 0.00 | Relative inhibition of TNF-α release in vivo [1, 6]: 0.00 | IFN-γ, relative inhibition of cytokine release ([1]; CBD 10 mg/kg): 0.00 | IL-1β, relative inhibition of cytokine release ([1]; CBD 10 mg/kg): 0.34 | IL-6, relative inhibition of cytokine release ([1]; CBD 10 mg/kg): 0.14 | IL-12(p70), relative inhibition of cytokine release ([1]; CBD 10 mg/kg): 0.00 | TNF-α, relative inhibition of cytokine release ([1]; CBD 10 mg/kg): 0.00 | Relative inhibition of IL-6 release in vivo ([1]; CBD 25 mg/kg alone): 0.03 | IL-6, relative inhibition of cytokine release ([1]; CBD 25 mg/kg): 0.03 | IL-1β, relative inhibition of cytokine release (BALF) [2]: 0.03 | MCP-1, relative inhibition of cytokine release (BALF) [2]: 0.07 | TNF-α, relative inhibition of cytokine release (BALF) [2]: 0.23 | CXCL-1, relative inhibition of cytokine release (BALF) [2]: 0.14 | Colon tissue histology (H&E, 100×), FIG. 3 (TNBS-induced colitis; CBD 1 mg/kg): inflammatory cell infiltration in submucosal edema | Relative reduction in Colon to body weight ratio (TNBS-induced colitis; CBD 1 mg/kg): 0.373 | Relative reduction in Total Colitis Index (TNBS-induced colitis; CBD 1 mg/kg): 0.25 | Macroscopic damage score, relative reduction (TNBS-induced colitis; CBD 1 mg/kg): 0.10 | Stool consistency score, relative reduction (TNBS-induced colitis; CBD 1 mg/kg): 0.17 | MPO, relative reduction (TNBS-induced colitis; CBD 1 mg/kg): 0.34
